Laboratory results reported in US8252766B2 (CBT Development Limited, priority 2002, dated 2012).

Key:
[1] = blood pressure and heart rate by implantable radiotelemetry; type: in vivo, rat; details: 0.624 mg/kg p.o., normal rats
Excerpt: An implantable radiotelemetry device was placed in the abdominal cavity of 6 rats per group. The pressure catheter of the device was inserted in the abdominal aorta and two electrodes tunnelised under the skin in a lead II position (left side of abdominal cavity/right shoulder). Individual rats were placed in their own cage on a radioreceptor (DSI) for data acquisition. A: blood pressure, B; heart rate.

[2] = system: normal physiological nociception; assay: normal physiological nociception; type: in vivo; details: after administration of spongosine
[3] = rats; cited from earlier work
[4] = system: carrageenan (CGN) induced thermal hyperalgesia; assay: carrageenan induced thermal hyperalgesia (CITH); type: in vivo
Experimental: Carrageenan (2%, 10 microliters) was administered into the right hind paw. A heat source was placed close to the treated and untreated hind paws, and the difference in the paw withdrawal latencies is shown. Spongosine was administered at the same time as carrageenan.

[5] = system: carrageenan-induced oedema; details: rats; inhibition of carrageenan-induced oedema in a rat paw; cited from earlier work
static allodynia = static allodynia in a model of neuropathic pain; type: in vivo
Experimental: Spongosine and gabapentin were administered (p.o.) in different proportions as indicated in the drawing. The total dose administered is shown on the horizontal axis, and the paw withdrawal threshold (PWT) on the vertical axis. The predicted anti-hyperalgesic effect (derived from the dose response curves obtained with each agent alone) if the effects of the two compounds are additive is shown (●). The observed effects are indicated by (▪).

[6] = system: thermal hyperalgesia caused by chronic constriction injury; assay: thermal hyperalgesia caused by chronic constriction injury of the rat sciatic nerve; type: in vivo
Excerpt: After approximately two weeks the rats developed thermal hyperalgesia in the operated leg as judged by the difference in paw withdrawal latencies of the right and left paws.

Row | Compound | effect on blood pressure [1] | effect on heart rate [1] | analgesic effect on normal physiological nociception [2] | hypotensive activity [3] | hypothermic activity [3] | muscle relaxant activity [3] | inhibition of carrageenan induced thermal hyperalgesia (difference in paw withdrawal latencies) ([4]; 0.624 mg/kg p.o., given at the same time as carrageenan (2%, 10 microliters, right hind paw)) | efficacy relative to indomethacin ([4]; spongosine 0.624 mg/kg p.o. versus indomethacin 3 mg/kg po) | anti-inflammatory activity [5] | inhibition of static allodynia (paw withdrawal threshold, PWT) (static allodynia; 1.2 mg/kg p.o., absence of naloxone) | inhibition of static allodynia (paw withdrawal threshold, PWT) (static allodynia; 1.2 mg/kg p.o., presence of naloxone 1 mg/kg s.c.) | inhibition of static allodynia (paw withdrawal threshold, PWT) (static allodynia; p.o., dose response, Example 5) | inhibition of thermal hyperalgesia (difference in paw withdrawal latencies) ([6]; 0.624 mg/kg p.o., rat, about two weeks after sciatic nerve ligation) | efficacy relative to carbamazepine ([6]; spongosine 0.624 mg/kg p.o. versus carbamazepine 100 mg/kg s.c.)
1 | COc1nc(N)c2ncn([C@@H]3O[C@H](CO)[C@@H](O)[C@H]3O)c2n1 [Spongosine, 2-methoxyadenosine] | no significant effect | no significant effect | No analgesic effect | hypotensive | hypothermic | muscle relaxant | inhibits | comparable efficacy | anti-inflammatory activity | inhibits | inhibits | inhibit | inhibits | as, or more, effective
2 | NCC1(CC(=O)O)CCCCC1 [gabapentin, reference compound] | – | – | – | – | – | – | – | – | – | – | – | inhibit | – | –
